The numbers were not newly measured in the CATMoS acute toxicity set (Mansouri et al. 2021), which cites them from elsewhere.

The structures appear in SMILES notation.

The data set is described as follows: rat acute oral toxicity. Particulars: in vivo.
A word on the LD50: it is the dose at which mortality reaches 50%. With `COc1ccc2c(c1)C13CCCCC1C(C2)N(C)CC3` (stereo not given), the median lethal dose (LD50) was 235 mg/kg. In the case of `CCCCOC(C)OCCCC`, the LD50 was 8790 mg/kg. For `CC1=CC(=O)NS(=O)(=O)O1`, the median lethal dose (LD50) was 7430 mg/kg. Turning to `O=C1C(Cl)C(CCl)CN1c1cccc(C(F)(F)F)c1` (stereo not given), the LD50 is 3650 mg/kg. Consider `Clc1ccc(CCC(Cn2ccnc2)Sc2c(Cl)cccc2Cl)cc1` (stereo not given), for which the median lethal dose (LD50) is 1720 mg/kg. As to `CSCC(=NO)C(C)(C)C`, the LD50 is 813 mg/kg. Consider `CN(C)CCN(Cc1ccc(Cl)cc1)c1ccccn1`, for which the LD50 was 920 mg/kg. Regarding `Cc1cc(=O)[nH]c(=S)[nH]1`, the median lethal dose (LD50) was 1500 mg/kg. As for `O=[N+]([O-])c1cc(C(F)(F)F)cc([N+](=O)[O-])c1Cl`, the LD50 is 930 mg/kg.

Take `O=[N+]([O-])OC1COC2C(O)COC12` (stereo not given): the LD50 is 2300 mg/kg.

With `CN(C)S(=O)(=O)CCCCNC(=O)N(CCCl)N=O`, the LD50 is 250 mg/kg. Take `CN(C)CCC1Oc2ccccc2Nc2ccccc21` (stereo not given): the LD50 was 1400 mg/kg. Take `Clc1ccc(COC(Cn2ccnc2)c2ccc(Cl)cc2Cl)cc1` (stereo not given): the LD50 was 668 mg/kg. In the case of `CCN(CC)CC(=O)c1c2c(cc3c1CCC3)CCC2`, the LD50 was 2220 mg/kg. Consider `NC(CO)(CO)CO`, for which the LD50 is 5900 mg/kg. For the molecule `Nc1ccc(C(=O)c2ccccc2)c(C(=O)O)c1`, the LD50 was 5400 mg/kg. Take `CCCNC(=O)OCC(O)C1COc2ccccc2O1` (stereo not given): the LD50 was 1500 mg/kg. In the case of `CCCOC(C1=NCCCN1)c1ccccc1` (stereo not given), the LD50 was 625 mg/kg.

Turning to `Cc1ccc2c(-c3ccccc3)nc(=O)n(C(C)C)c2c1`, the LD50 is 759 mg/kg. As for `CCC(=O)C(CC(C)N(C)C)(c1ccccc1)c1ccccc1` (stereo not given), the LD50 is 86 mg/kg. In the case of `CCOC(=O)c1cnn(C)c1-n1c(CC)nc2ccccc2c1=O`, the LD50 is 1820 mg/kg. For the molecule `CC(O)C(c1ccccc1)N1CCN(CCOc2ccccc2)CC1` (stereo not given), the LD50 is 250 mg/kg. In the case of `Cc1ccc(C(C)C)cc1`, the LD50 was 4750 mg/kg.

Consider `O=C1CCc2cc(C(=O)CCCN3CC=C(c4ccc(Cl)cc4)CC3)ccc2N1`, for which the LD50 is 500 mg/kg. For `Cc1ccc(S(=O)(=O)/C=C/C#N)cc1`, the LD50 is 1440 mg/kg. Consider `CCCCCCCC(=O)Oc1ccc(C)cc1`, for which the LD50 is 1600 mg/kg. Regarding `O=[N+]([O-])c1cc(Cl)c(N=Nc2ccc(N3CCS(=O)(=O)CC3)cc2)c(Cl)c1`, the median lethal dose (LD50) is 3200 mg/kg. With `CN(C)CCOC(C)(c1ccccc1)c1ccc(Cl)cc1` (stereo not given), the LD50 was 1000 mg/kg. For the molecule `CNC(=O)c1cc(-c2ccccc2)ccc1OCCO`, the LD50 was 2700 mg/kg. For the molecule `COc1ccc(OCC(=O)N[C@@H]2C(=O)N3[C@@H]2SC(C)(C)[C@@H]3C(=O)O)cc1F`, the LD50 was 7000 mg/kg. On to `CCc1c(C)[nH]c2c1C(=O)C(CN1CCC3(CC1)OCCO3)CC2` (stereo not given), for which the LD50 is 240 mg/kg.

For the molecule `CCN(CC)C(=O)CCl`, the LD50 is 500 mg/kg. For `O=C1CC=C(O)N=N1`, the LD50 was 3900 mg/kg. Consider `CN(C)CCCN(C)[C@H]1CC[C@H]2[C@@H]3CC=C4C[C@@H](O)CC[C@]4(C)[C@H]3CC[C@]12C`, for which the LD50 is 470 mg/kg.

In the case of `Fc1ccc(SCc2ccc(Cl)cc2)cc1`, the LD50 is 3000 mg/kg. Turning to `O=C1N=C2c3ccccc3N=CN2C1=Cc1ccccc1`, the LD50 is 325 mg/kg. Consider `CC(=O)Oc1cc(C(F)(F)F)ccc1C(=O)O`, for which the 50% lethal dose (LD50) was 402 mg/kg. With `Cc1ccn(C(=O)NCCCCCCNC(=O)n2ccc(C)n2)n1`, the LD50 is 4850 mg/kg. Turning to `COc1ccccc1OC(=O)[C@H](C)c1ccc(CC(C)C)cc1`, the median lethal dose (LD50) was 2060 mg/kg. As for `Cc1[nH]c(=O)n(C(C)C)c(=O)c1Br`, the LD50 is 3400 mg/kg.

`CC(Cc1ccccc1)OC(N)=O` (stereo not given): the LD50 was 1100 mg/kg.

With `CCCOC(=O)c1cc(O)c(O)c(O)c1`, the LD50 was 2100 mg/kg. In the case of `CNC(=O)Oc1cc(C)c(S(C)=O)c(C)c1` (stereo not given), the 50% lethal dose (LD50) is 42 mg/kg.

Regarding `CC(C)=Cc1ccc(C(C)C(=O)O)cc1` (stereo not given), the LD50 is 1300 mg/kg.

In the case of `COc1cc(NS(=O)(=O)c2ccc(N)cc2)ncn1`, the LD50 was 5620 mg/kg.

For the molecule `O=S(=O)(O)c1ccc(N=Nc2ccc(N=Nc3c(O)ccc4ccccc34)cc2)cc1`, the LD50 is 7740 mg/kg. `FC(F)(F)c1cccc(C2CNCCO2)c1` (stereo not given): the LD50 is 271 mg/kg.

Regarding `CN1CCC(Oc2ccc(N)cc2)(c2ccccc2)CC1`, the LD50 is 410 mg/kg.

For the molecule `CC(C)C(CCN(C)C)(C(N)=O)c1cccc2ccccc12` (stereo not given), the LD50 was 1030 mg/kg. As to `CC(=O)OCc1ccc(C(C)C)cc1`, the LD50 was 1450 mg/kg. For the molecule `C1=CC(c2ccc(C3CC=CCC3)cc2)CCC1` (stereo not given), the LD50 was 17500 mg/kg.

For `COP(=O)(OC)SCN1C(=O)c2ccccc2C1=O`, the LD50 was 50 mg/kg. Take `Cc1cc(=O)c2c(C)ccc(C)c2o1`: the LD50 was 2960 mg/kg.

Turning to `O=C1C(Cc2ccccc2)C(=O)N(c2ccccc2)N1c1ccccc1`, the LD50 is 297 mg/kg. For `CC(=O)Oc1c(C(C)(C)C)cc([N+](=O)[O-])c(C)c1[N+](=O)[O-]`, the median lethal dose (LD50) was 42 mg/kg. For the molecule `CCOP(=O)(NC(C)C)SCC(=O)NCOC` (stereo not given), the median lethal dose (LD50) was 100 mg/kg.

Regarding `CCS(=O)(=O)Nc1c(C)cc(OC(=O)NC)cc1C`, the 50% lethal dose (LD50) was 780 mg/kg.

Take `O=[N+]([O-])c1cc(Cl)c(Cl)c(Cl)c1[N+](=O)[O-]`: the LD50 was 425 mg/kg.

Consider `Cc1cccc(C)c1N(Cn1cccn1)C(=O)CCl`, for which the LD50 was 1000 mg/kg. Regarding `C=C(C)C(=O)OC[Si]12OCCN(CCO1)CCO2`, the LD50 is 7950 mg/kg.
